Results published in PMC10299677, “Fluorinated Benzofuran and Dihydrobenzofuran as Anti-Inflammatory and Potential Anticancer Agents” (International Journal of Molecular Sciences, 2023).
“Also recorded” adds a separate entry of the source.

What was measured:
COX-2 = target: T1, COX-2 (Mus musculus, UniProt Q05769); assay: COX-2 activity: PGE2 from exogenous arachidonic acid in aspirin-pretreated, 24 h LPS-treated macrophages; assay type: cell-based, C57BL/6J mice; conditions: 10 µM arachidonic acid; for effect on COX-2 activity: 50 µM, aspirin-pretreated LPS-treated macrophages; for IC50: aspirin-pretreated, 24 h LPS-treated macrophages
T1 construct: prior to the addition of LPS for 24 h to induce COX-2; endogenous in cells; host or cells: Bone marrow-derived macrophages from C57BL/6J mice, aspirin-pretreated, then LPS 24 h
T1 sequence (Q05769 18-604): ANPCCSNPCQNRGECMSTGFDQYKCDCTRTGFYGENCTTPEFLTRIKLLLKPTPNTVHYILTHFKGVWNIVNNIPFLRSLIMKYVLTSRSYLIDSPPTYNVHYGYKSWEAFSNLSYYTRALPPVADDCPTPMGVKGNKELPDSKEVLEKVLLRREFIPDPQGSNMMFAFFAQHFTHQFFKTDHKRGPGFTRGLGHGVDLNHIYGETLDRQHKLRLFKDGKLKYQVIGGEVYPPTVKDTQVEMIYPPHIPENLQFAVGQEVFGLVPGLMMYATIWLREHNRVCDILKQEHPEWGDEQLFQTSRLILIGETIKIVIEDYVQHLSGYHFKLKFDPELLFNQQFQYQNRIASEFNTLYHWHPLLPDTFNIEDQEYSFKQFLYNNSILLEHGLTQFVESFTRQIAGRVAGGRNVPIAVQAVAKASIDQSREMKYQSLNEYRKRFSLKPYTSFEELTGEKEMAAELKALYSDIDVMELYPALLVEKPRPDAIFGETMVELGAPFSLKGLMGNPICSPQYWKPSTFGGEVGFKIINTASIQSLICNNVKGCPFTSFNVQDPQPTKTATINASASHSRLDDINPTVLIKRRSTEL
Method: (A) Illustration for COX-1 activity assay. […] (B) COX-1 activity. […] (C) Illustration for COX-2 activity determination. Macrophages are treated with 10 µM of aspirin (ASA) for 30 min to block basal COX activity, washed, and treated with 10 ng/mL LPS for 24 h to induce COX-2. Cells are then washed and incubated 30 min with 50 µM of the different compounds prior to the addition of 10 µM of AA. The produced PGE2 mainly reflects COX-2 activity. (D) COX-2 activity. Percentage of LPS-treated cells was calculated, and data are represented as mean ± SEM (n = 4); * p < 0.05 versus AA for COX-1 activity, and versus LPS + ASA + AA for COX-2 activity (one-way ANOVA followed by Dunnett’s test).
For both COX-1 and COX-2 assays, the benzofuran compounds were then added to the cells for 30 min prior to the incubation with 10 µM arachidonic acid for another 30 min. PGE2 was then measured using an enzyme immunoassay, as described previously.
(§1) IL-6, CCL2, nitrite (for NO), and PGE2 concentrations from 3–5 independent experiments were expressed as percentage of LPS alone and as mean ± SEM. COX activity was determined as percentage of PGE2 produced from exogenous arachidonic acid. Curve fitting and calculation of IC50 values were performed using GraphPad Prism (version 9.5.1 Software, La Jolla, CA, USA).

NO = NO (nitrite) formation in LPS-treated macrophages (BMDM); assay type: cell-based, C57BL/6J mice; conditions: for effect on NO production: 50 µM, LPS 24 h; for IC50: compounds 30 min prior to 10 ng/mL LPS for 24 h
Method: C57BL/6J (10–15 weeks old) male mice were obtained from the animal care facility at the American University of Beirut. All animal procedures were performed following the recommendations of the IACUC (Institutional Animal Care and Use Committee approval 16-09-M379). BMDMs were prepared and characterized as described previously by our group. BMDMs were isolated from C57BL/6J mice by flushing the femur and tibia with RPMI-1640 culture media (Sigma-Aldrich R7388), and cells were collected and centrifuged at 300× g for 5 min. The supernatant was discarded, and the pellet was resuspended in 2 mL red blood lysis 10% (Sigma-Aldrich R7767) medium in PBS and incubated for 5 min at room temperature. After diluting the suspension of cells with 5 mL of RPMI containing 10% FBS and 1% penicillin–streptomycin, cells were centrifuged at 300× g for 5 min, and the cell pellet was resuspended in RPMI media containing 10% FBS supplemented with 15% L929-conditioned medium containing macrophage-colony stimulating factor (M-CSF1) and plated on […]. Cells were allowed to proliferate and differentiate for 5–6 days. Cells were harvested, washed, and allowed to adhere overnight in RPMI containing 10% FBS for treatment. Cells were previously characterized by flow cytometry as macrophages using this method. […] Cells were plated at 0.8 × 10^6 cells per 3.8 cm^2 well [27].
BMDMs were then treated with different concentrations of the benzofuran and dihydrobenzofuran derivatives for 30 min prior to the addition of 10 ng/mL LPS for 24 h. […] The supernatants were assessed for IL-6, PGE2, CCL2, and nitrite, the stable derivative of NO, as described previously.
as §1

IL-6 mRNA = assay: LPS-dependent IL-6 mRNA in THP-1-derived macrophages (RT-PCR); assay type: cell-based, human; conditions: 50 µM, 10 ng/ml LPS 6 h
Method: (§2) F i g u re S3: Eff ect of benzofuran compounds on the lev els of LP S -dependent mRNA of CCL2 and IL-6 in THP-1 –deriv ed macrophages. Human-monoc yti c cell l ine-THP-1 wer e treat ed with PMA (25 nM for 48 hours) th en in cub ated with 50 μM compounds for 30 minutes b efo re the addit ion of 10 ng/ml LP S fo r 6 hours. Gene ex pression of IL6 and CCL2 were measur ed by RT-PCR and the v alu es wer e nor mal ized to GAPDH. Results represent means ± SEM by one way ANOVA followed by Dunnett test.

HCT116 cells = assay: TUNEL assay for apoptosis (DNA cleavage) in HCT116; assay type: cell-based, human; conditions: 10, 25 and 50 µM, 72 h
Method: Terminal deoxynucleotidyl transferase dUTP nick-end labeling (TUNEL) assay (Sigma Aldrich 11684795910) was conducted to detect late phase of apoptosis in HCT116 cells. Cells were plated in 6-well plate (200,000 cells per well) for 24 h, and treated with compounds 1 and 2 at 10, 25, and 50 µM for 72 h. Adherent cells and cells in supernatants were collected and fixed with 4% paraformaldehyde for 2 days and then treated with PBS containing 0.1% Triton X-100 at 4 °C for 2 min. Cells were then stained with the TUNEL reagent for 1 h, and positive signals were quantified using the Guava EasyCyte8 Flow Cytometer-Millipore according to the manufacturer’s instructions.
Densitometric analyses were performed using ImageJ software (NIH, MA, USA). The ratio of the different analyzed bands to β-actin was determined and data are represented as fold change compared to the LPS-treated cells. Percentage of viable cells for proliferation assay was determined as percentage to control (non-treated cells). For TUNEL assay, apoptotic cells were quantified, and results were expressed as percentage to positive cells (cleaved DNA) compared to control (non-treated cells). Statistical analysis was performed using one-way ANOVA, followed by Dunnett’s multiple comparisons test using GraphPad Prism software. Differences were considered significant when p < 0.05.

CCL2 mRNA = assay: LPS-dependent CCL2 mRNA in THP-1-derived macrophages (RT-PCR); assay type: cell-based, human; conditions: 50 µM, 10 ng/ml LPS 6 h
Method: as §2

| SMILES | effect on COX-2 activity (COX-2) | IC50 (COX-2) [µM] | effect on NO production (NO) | IC50 (NO; Mus musculus, Macrophage) [µM] | IC50 (NO) [µM] | effect on IL-6 mRNA levels (IL-6 mRNA) | percentage of apoptotic cells, TUNEL (HCT116 cells) | effect on CCL2 mRNA levels (CCL2 mRNA) |
| --- | --- | --- | --- | --- | --- | --- | --- | --- |
| C=C(C)c1ccc2oc(CC(=O)O)c(F)c2c1 [Compound 6] | strongly reduced; also recorded: direct inhibitory effect | 13 | – | – | – | – | – | – |
| O=C(O)/C=C1\Oc2ccc(Br)cc2C1(F)F [Compound 3] | slight reduction | – | significantly decreased | 5.2 | 5.23 | to a lesser extent | – | – |
| COC(=O)/C=C1/Oc2ccc(Br)cc2C1(F)F [Compound 1] | – | – | – | – | – | decreased significantly | concentration-dependent increase | decreased significantly |
| COC(=O)CC1(O)Oc2ccc(Br)cc2C1(F)F (stereo not shown) [Compound 8] | without any effect | – | – | – | – | – | – | – |
| O=C(O)Cc1oc2ccc(-c3ccccc3)cc2c1F [Compound 5] | strongly reduced; also recorded: direct inhibitory effect | 28.1 | – | – | – | – | – | – |
| O=C(O)/C=C1/Oc2ccc(Br)cc2C1(F)F [Compound 2] | – | – | significantly decreased | 2.4 | 2.42 | decreased significantly | concentration-dependent increase | decreased significantly |
